Laboratory results reported in paper PMC12751012, “Nanoscale Direct-to-Biology Optimization and Structural Insights into Selective S. aureus TrmD Inhibitors” (Journal of Medicinal Chemistry, 2025).
Like-named read-outs stand apart in the source and are kept apart here.

Experiments:
S. aureus TrmD = target: T1, S. aureus TrmD (Staphylococcus aureus, UniProt Q2FZ43); assay: Aptamer-based MTase enzyme inhibition assay; type: biochemical
T1 construct: made in house; host or cells: E. coli BL21
T1 sequence (Q2FZ43 1-245): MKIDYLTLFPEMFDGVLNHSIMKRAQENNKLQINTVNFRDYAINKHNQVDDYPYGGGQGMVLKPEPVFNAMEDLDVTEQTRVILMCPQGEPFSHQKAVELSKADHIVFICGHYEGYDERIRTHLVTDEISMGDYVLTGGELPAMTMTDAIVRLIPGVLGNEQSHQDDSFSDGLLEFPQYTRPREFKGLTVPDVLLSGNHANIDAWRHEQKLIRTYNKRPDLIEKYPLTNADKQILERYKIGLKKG
Method: For the determination of S. aureus TrmD IC50-values, a split aptamer assay according to Nidoieva et al. was employed. The assay was performed in 40 mM Tris HCl, 100 mM NaCl, 10 mM MgCl2, 5% Glycerol, pH 7.5. Enzyme reaction mixtures contained synthetic tRNA^LeuCAG substrate (synthetic tRNA^Leu: 5′-[…]-3′, Genscript, final concentration: 2 μM), S. aureus TrmD (final concentration: 100 nM), SAM (New England Biolabs, final concentration: 2 μM), and the test compounds in varying concentrations (3% DMSO, final volume 10 μL). Pure DMSO was used as a mock treatment reaction control. The assay was carried out in triplicate in black 384-well plates (Greiner). Enzyme reactions were quenched by the addition of 1 μL SDS (3%) after an incubation time of 60 min at room temperature.

E. coli TrmD = target: T2, E. coli TrmD (Escherichia coli, UniProt P0A873); assay: Fluorescence polarization (FP) assay, tracer 3 (Cy5TPD), E. coli TrmD; type: binding
T2 construct: made in house; host or cells: E. coli (the strain received with the pCA24N plasmid)
Method: Fluorescence polarization (FP) assays were performed as follows. The assays for H. influenzae TrmD have been described previously. All assays were conducted in technical triplicate using black 96-well half area plates. For the FP assays, a tracer (20 nM Cy5TPD for E. coli and H. influenzae TrmD, 10 nM tracer 4 for S. aureus TrmD) was mixed with the respective enzyme (2 μM E. coli TrmD, 2 μM H. influenzae TrmD, 500 nM S. aureus TrmD) in buffer (E. coli and H. influenzae TrmD: 50 mM HEPES, 500 mM NaCl, 5% Glycerol, pH 7.5, S. aureus TrmD: 40 mM Tris HCl, 100 mM NaCl, 10 mM MgCl2, 5% Glycerol, pH 7.5). The compounds were added in varying concentrations for K D-value determination. For K D-value determination of tracers, the enzyme concentration was varied, and no inhibitory compounds were added (DMSO < 0.5% for TrmDs). The Z-factor for tracer 4 was determined by measuring 48 replicates of the free tracer (positive controls, PC) and 48 replicates of a mixture of enzyme and tracer (negative controls, NC). The Z-factor is defined in terms of the means (μ) and standard deviations (σ) of the positive and negative controls and calculated as Z = 1–(3*(σnc + σpc)/(μnc–μpc)). Fluorescence polarization was measured using a Spark 10 M plate reader (Tecan) equipped with polarization filters and a monochromator setup (λex = 635 nm, λem = 680 nm). Polarization values (mP) were determined from polarization-specific parallel and orthogonal fluorescence intensities. K D-values were calculated in GraphPad Prism 8.0.1 using the four-parameter Hill equation: y(% tracer bound) = bottom + ([ligand]-slope) × (top–bottom)/([ligand]-slope + K Dslope).

[1] = aptamer-based enzyme assay, read-out: IC50 S. aureus TrmD

T2 sequence (P0A873 whole entry): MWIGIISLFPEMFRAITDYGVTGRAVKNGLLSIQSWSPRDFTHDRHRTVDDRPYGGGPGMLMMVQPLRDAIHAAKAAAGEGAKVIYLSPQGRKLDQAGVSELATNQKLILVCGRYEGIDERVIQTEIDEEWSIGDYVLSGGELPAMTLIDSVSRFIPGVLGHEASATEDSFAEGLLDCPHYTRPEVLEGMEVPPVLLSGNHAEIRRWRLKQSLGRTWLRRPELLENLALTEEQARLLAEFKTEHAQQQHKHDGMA

SMILES	IC50 (S. aureus TrmD) [nM]	Kd (E. coli TrmD) [µM]	IC50 (S. aureus TrmD; [1]) [nM]
NC(N)=NCCn1cc(-c2c[nH]c3nc[nH]c(=O)c23)nn1 [Compound 8h]	1160 ± 120	> 30	
N#Cc1cccc(Cn2cc(-c3c[nH]c4nc[nH]c(=O)c34)nn2)c1 [Compound 8b, 3-((4-(4-Oxo-4,7-dihydro-3H-pyrrolo[2,3-d]pyrimidin-5-yl)-1H-1,2,3-triazol-1-yl)methyl)benzonitrile]		> 30	3220 ± 1800
O=c1[nH]cnc2[nH]cc(-c3cn(Cc4ccc5ncccc5c4)nn3)c12 [Compound 8d, 5-(1-(Quinolin-6-ylmethyl)-1H-1,2,3-triazol-4-yl)-3,7-dihydro-4H-pyrrolo[2,3-d]pyrimidin-4-one]		> 30	390 ± 70
O=c1[nH]cnc2[nH]cc(-c3cn(CC4CCC5C(CC4)C5(F)F)nn3)c12 (stereo not shown) [Compound 8c, 5-(1-((8,8-Difluorobicyclo[5.1.0]octan-4-yl)methyl)-1H-1,2,3-triazol-4-yl)-3,7-dihydro-4H-pyrrolo[2,3-d]pyrimidin-4-one]		> 30	710 ± 100
N[C@@H]1CCC[C@@H]1Cn1cc(-c2c[nH]c3nc[nH]c(=O)c23)nn1 [Compound 8e, 5-(1-(((1R,2R)-2-Aminocyclopentyl)methyl)-1H-1,2,3-triazol-4-yl)-3,7-dihydro-4H-pyrrolo[2,3-d]pyrimidin-4-one]		> 30	480 ± 60
